Experimental data taken from US20170327556A1, “CARTILAGE-BINDING FUSION PROTEINS” (Merrimack Pharmaceuticals, Inc., priority 2013, published 2017).

Tested on: bovine cartilage explants
Experiment: In vitro joint disease model (IL-1), explanted bovine cartilage: sGAG loss
Type: cell-based
Details: for cartilage matrix loss (% sGAG loss): 13.3 nM supplied in every medium change, IL-1, relative to Disease control; for cartilage matrix loss (% sGAG loss), 4 days versus 12 days of treatment: protein in medium day 0-4 only versus 12 days, IL-1, FIG. 7
Text: Bovine cartilage explants (3 mm diameter, 1.2 mm thick) are harvested from the femoral patellar groove of 2-4 week old bovine calves. Knee joints are mounted by removing all tissue surrounding the femur, removing the femoral head with a bone saw or hack saw, and clamping in a tissue vice. Joints are aseptically opened, removing the patella, tibia and fibula. Using a 3 mm diameter disposable biopsy punch, approximately 80×3 mm diameter full thickness cartilage cores are punched from the femoral-patellar groove. A sterile knife is used to slice the cores at the cartilage-bone interface. Cores are then inserted into 3 mm diameter holes in a 1.2 mm thick sterile stainless steel plate and sliced flush with the plate using sterile razor blades to remove the excess core length, resulting in 3 mm diameter, 1.2 mm thick cartilage explants with the superficial zone cartilage intact.
Explants are cultured in 96-well plates in 300 μL of medium consisting of low glucose DMEM (1× Gibco 11885-084), Penicillin-Streptomycin (1×, Gibco 15140-122), ascorbic acid (20 μg/mL, Sigma A4403), proline (400 μM, Sigma P5607-256), non-essential amino acids (1×, Sigma M7145), and HEPES (100 mM, Gibco 15630-080). Explants from three animals (n=2-3 per animal) are used in each treatment condition for a total explant number of 8-9 per condition. Medium is changed every 2 days. On days 6 and 10, the medium is supplemented with 5 μCi/mL of ^35S-sodium sulfate (Perkin Elmer NEX041H001MC, 1 mCi).
Timepoints are taken at day 8 and 12: explant tissue is washed four times for 30 min each (2 hr total) in 1 mM unlabeled sodium sulfate in PBS. Each explant is weighed wet and frozen at −20° C. until digestion. Tissue digestion was performed with Proteinase K (Roche cat #3115879001) and each explant is digested in 1 mL 100 μg/mL Proteinase K in 50 mM Tris-HCL, 1 mM Calcium Chloride pH=8.0 buffer at 60° C. overnight. Measurement of sGAG content and DNA content is performed using standard assay methods such as those described in Hoemann, 2004, Methods in Molecular Medicine: Cartilage and Osteoarthritis. Totowa, N.J.: Humana Press Inc.; p. 127-52. ^35S-sulfate content of the digested cartilage explants was quantified by mixing 20 μL of digest with 250 μL of scintillation fluid (Perkin Elmer cat #1200-439) and counting with a WALLAC 1450 MICROBETA TRILUX scintillation counter.
Treatments were given at the following concentrations: wtIGF-1 13.3 nM=100 ng/mL (IGF-1 R&D systems 291-G1); GF-Fus1 (6x-Histidine tagged) 13.3 nM=135 ng/mL; GF-Fus2 (6x-Histidine tagged) 13.3 nM=140 ng/mL; and GF-Fus3 (6x-Histidine tagged)13.3 nM=181 ng/mL. All treatments included IL-1 and were given for either 4 days or the entire culture duration. The outcomes measured were ^35S-sulfate incorporation, DNA content, and sGAG content of plug at endpoint, and sGAG released to media for all media changes. Controls were either no treatment (Healthy) or IL-1 alone at 1 ng/mL (Disease).
FIG. 4 depicts a graph of cartilage matrix loss as measured by the cumulative percentage of total sGAG lost to the culture medium against time (days). Percentage loss is calculated by dividing the cumulative sGAG in the culture medium by the total sGAG present in the medium over the culture period plus the sGAG remaining in the explant at the end of culture. Cartilage matrix loss was reduced by each IGF fusion protein relative to the disease control at a level similar to wild-type IGF. New cartilage matrix synthesis (i.e. sulfated proteoglycan synthesis is measured by ^35S-Sulfate incorporation) during the final 48 hrs of cultures terminated at day 8 and day 12 is shown in FIGS. 5A and 5B, respectively. Cartilage matrix synthesis was increased compared to disease control by all fusion proteins (GF-Fus1, GF-Fus2, and GF-Fus3) and wild-type IGF when the fusion proteins were supplied in every medium change for the entire culture duration of 8 and 12 days (black bars). […]

Substance	cartilage matrix loss (% sGAG loss)	cartilage matrix loss (% sGAG loss), 4 days versus 12 days of treatment
GF-Fus6: IGF-1(LR3) fused to CNA344 CB domain	reduced	–
GF-Fus3: C-terminal fusion IGF-1(LR3)-PRELP heparin binding domain	reduced	reduced sGAG loss by an equivalent amount
GF-Fus5: IGF-1(LR3) fused to CNA35 CB domain	reduced	–
wtIGF: Wild-type IGF-1 (R&D systems 291-G1), control [reference compound]	reduced	–
GF-Fus1: IGF-1 variant polypeptide Long [R^3]-IGF-1, no fused binding domain; used 6x-Histidine-tagged as control [reference compound]	reduced	higher sGAG loss than 12 days of treatment
